Results reported in patent US9050346B2, “Bromodomain inhibitors” (AbbVie Inc., priority 2013, dated 2015).
pEC50, pKi: −log10 of the molar value.

What was measured:
BRD4 (BDI_K57-E168) = target: T1, BRD4 (BDI_K57-E168) (Homo sapiens, UniProt O60885); assay: TR-FRET bromodomain binding assay, BRD4 first bromodomain; conditions: His-tagged BD1, 100 nM Alexa647 probe; Ki calculated from IC50; dilution protocol A-G
T1 construct: BD1: amino acids K57-E168; made in house
Method in brief: (§1)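 His-tagged BRD4 BD1 (K57-E168) or BD2 (8 nM) with Eu-anti-His antibody and Alexa647-labeled BET-inhibitor probe (100 nM for BDI, 30 nM for BDII), pH 6.0 phosphate buffer, 2% DMSO, 1 h at room temperature. TR-FRET (Ex 340, Em 495/520); IC50 by 4-parameter fit, converted to Ki using probe Kd and concentration.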

BRD4 (BDII_E352-M457) = target: T2, BRD4 (BDII_E352-M457) (Homo sapiens, UniProt O60885); assay: TR-FRET bromodomain binding assay, BRD4 second bromodomain
T2 construct: made in house
Method in brief: as §1

[1] = system: breast cancer cell line MX-1; assay: MX-1 cell line proliferation assay (3-day, Cell Titer Glo); type: cell-based; conditions: Homo sapiens, MX1, MX-1 cells, 72 h, top concentration 3 μM, read-out: Cellular proliferation: EC50
Procedure: The impact of compounds of the Examples on cancer cell proliferation was determined using the breast cancer cell line MX-1 (ATCC) in a 3-day proliferation assay and the data are reported in Table 1. MX-1 cells were maintained in RPMI 1640 medium (Sigma) supplemented with 10% FBS at 37 C.° and an atmosphere of 5% CO2. For compound testing, MX-1 cells were plated in 96-well black bottom plates at a density of 5000 cells/well in 90 μL of culture media and incubated at 37° overnight to allow cell adhesion and spreading. Compound dilution series were prepared in DMSO via a 3-fold serial dilution from 3 mM to 0.1 μM. The DMSO dilution series were then diluted 1:100 in phosphate buffered saline, and 10 μL of the resulted solution were added to the appropriate wells of the MX-1 cell plate. The final compound concentrations in the wells were 3, 1, 0.3, 0.1, 0.03, 0.01, 0.003, 0.001, 0.0003 and 0.0001 μM.
Luminescence readings from the Cell Titer Glo assay were normalized to the DMSO treated cells and analyzed using the GraphPad Prism software with sigmoidal curve fitting to obtain EC50s. The minimum significant ratio (MSR) was determined to evaluate assay reproducibility (Eastwood et al., (2006) J Biomol Screen, 11: 253-261).

pKi (BRD4 (BDI_K57-E168))	pKi (BRD4 (BDII_E352-M457))	pEC50 [1]	SMILES
7.65	7.24	< 5.52	Cc1[nH]c(-c2cc(S(C)(=O)=O)ccc2Oc2ccc(F)cc2F)c2cc(C(N)=O)[nH]c(=O)c12 [Example 42, 1-[2-(2,4-difluorophenoxy)-5-(methylsulfonyl)phenyl]-3-methyl-4-oxo-4,5-dihydro-2H-pyrrolo[3,4-c]pyridine-6-carboxamide]
8.75	7.80	6.60	Cc1[nH]c(-c2ccccc2Oc2ccccc2)c2cc(C(=O)NC3CCNCC3)[nH]c(=O)c12 [Example 57, 3-methyl-4-oxo-1-(2-phenoxyphenyl)-N-(piperidin-4-yl)-4,5-dihydro-2H-pyrrolo[3,4-c]pyridine-6-carboxamide]
6.67	6.30	6.02	Cc1nc2c(-c3ccccc3Oc3ccccc3)[nH]c(C)c2c(=O)[nH]1 [Example 89, 2,5-dimethyl-7-(2-phenoxyphenyl)-3,6-dihydro-4H-pyrrolo[3,4-d]pyrimidin-4-one]
8.03	6.82	7.09	Cc1[nH]c(-c2ccccc2Oc2ccccc2)c2cc(-c3nc(Cc4cccnc4)no3)[nH]c(=O)c12 [Example 66, 3-methyl-1-(2-phenoxyphenyl)-6-(3-(pyridin-3-ylmethyl)-1,2,4-oxadiazol-5-yl)-2H-pyrrolo[3,4-c]pyridin-4(5H)-one]
8.30	7.02	6.86	CCOC(=O)c1cc2c(-c3cc(F)ccc3OC3CCCCC3)[nH]c(C)c2c(=O)[nH]1 [Example 48, ethyl 1-[2-(cyclohexyloxy)-5-fluorophenyl]-3-methyl-4-oxo-4,5-dihydro-2H-pyrrolo[3,4-c]pyridine-6-carboxylate]
8.69	7.80	6.48	Cc1[nH]c(-c2ccccc2Oc2ccccc2)c2cc(C(=O)NC[C@H]3CCNC3)[nH]c(=O)c12 [Example 58, (S)-3-methyl-4-oxo-1-(2-phenoxyphenyl)-N-(pyrrolidin-3-ylmethyl)-4,5-dihydro-2H-pyrrolo[3,4-c]pyridine-6-carboxamide]
8.49	7.61	7.04	Cc1[nH]c(-c2cc(NS(C)(=O)=O)ccc2Oc2ccc(F)cc2F)c2cn[nH]c(=O)c12 [Example 80, N-[4-(2,4-difluorophenoxy)-3-(7-methyl-1-oxo-2,6-dihydro-1H-pyrrolo[3,4-d]pyridazin-5-yl)phenyl]methanesulfonamide]
7.08	6.45	< 5.52	Cc1[nH]c(-c2cc(F)ccc2OCC2CC2)c2cc(C(N)=O)[nH]c(=O)c12 [Example 70, 1-[2-(cyclopropylmethoxy)-5-fluorophenyl]-3-methyl-4-oxo-4,5-dihydro-2H-pyrrolo[3,4-c]pyridine-6-carboxamide]
7.92	7.29	6.65	CCOC(=O)c1cc2c(-c3cc(S(C)(=O)=O)ccc3Oc3ccc(F)cc3F)[nH]c(C)c2c(=O)[nH]1 [Example 39, ethyl 1-[2-(2,4-difluorophenoxy)-5-(methylsulfonyl)phenyl]-3-methyl-4-oxo-4,5-dihydro-2H-pyrrolo[3,4-c]pyridine-6-carboxylate]
7.46	6.34	6.39	Cc1[nH]c(-c2cc(S(C)(=O)=O)ccc2OCC2CC2)c2c1C(=O)NCC2 [Example 96, 1-[2-(cyclopropylmethoxy)-5-(methylsulfonyl)phenyl]-3-methyl-2,5,6,7-tetrahydro-4H-pyrrolo[3,4-c]pyridin-4-one]
8.08	7.14	6.79	Cc1[nH]c(-c2ccccc2Oc2ccccc2)c2cc(C(=O)NN(C)C)[nH]c(=O)c12 [Example 53, N′,N′,3-trimethyl-4-oxo-1-(2-phenoxyphenyl)-4,5-dihydro-2H-pyrrolo[3,4-c]pyridine-6-carbohydrazide]
8.00	6.86	6.80	Cc1noc(-c2cc3c(-c4ccccc4Oc4ccccc4)[nH]c(C)c3c(=O)[nH]2)n1 [Example 61, 3-methyl-6-(3-methyl-1,2,4-oxadiazol-5-yl)-1-(2-phenoxyphenyl)-2H-pyrrolo[3,4-c]pyridin-4(5H)-one]
8.00	7.86	6.79	Cc1[nH]c(-c2ccccc2Oc2ccccc2)c2cc(C(=O)NC3CCOC3)[nH]c(=O)c12 (stereo not drawn) [Example 37, 3-methyl-4-oxo-1-(2-phenoxyphenyl)-N-(tetrahydrofuran-3-yl)-4,5-dihydro-2H-pyrrolo[3,4-c]pyridine-6-carboxamide]
8.67	8.06	7.52	CCOC(=O)c1cc2c(-c3cc(CS(C)(=O)=O)ccc3Oc3ccc(F)cc3F)[nH]c(C)c2c(=O)[nH]1 [Example 68, ethyl 1-{2-(2,4-difluorophenoxy)-5-[(methylsulfonyl)methyl]phenyl}-3-methyl-4-oxo-4,5-dihydro-2H-pyrrolo[3,4-c]pyridine-6-carboxylate]

Second part, the compound before the results:

SMILES	pKi (BRD4 (BDI_K57-E168))	pKi (BRD4 (BDII_E352-M457))	pEC50 [1]
CCOC(=O)c1cc2c(-c3cc(NS(C)(=O)=O)ccc3Oc3ccccc3)[nH]c(C)c2c(=O)[nH]1 [Example 5, ethyl 3-methyl-1-(5-(methylsulfonamido)-2-phenoxyphenyl)-4-oxo-4,5-dihydro-2H-pyrrolo[3,4-c]pyridine-6-carboxylate]	8.84	8.02	7.33
Cc1[nH]c(-c2ccccc2Oc2ccccc2)c2cc(C(N)=O)[nH]c(=O)c12 [Example 11, 3-methyl-4-oxo-1-(2-phenoxyphenyl)-4,5-dihydro-2H-pyrrolo[3,4-c]pyridine-6-carboxamide]	8.37	7.92	7.50
Cc1[nH]c(-c2ccccc2Oc2ccccc2)c2cc(C(=O)NCC3CCOC3)[nH]c(=O)c12 (stereo not drawn) [Example 36, 3-methyl-4-oxo-1-(2-phenoxyphenyl)-N-(tetrahydrofuran-3-ylmethyl)-4,5-dihydro-2H-pyrrolo[3,4-c]pyridine-6-carboxamide]	8.05	7.68	6.73
Cc1[nH]c(-c2ccccc2Oc2ccccc2)c2cc(C(=O)Nc3ccc(CN4CCN(C)CC4)cc3)[nH]c(=O)c12 [Example 17, 3-methyl-N-(4-((4-methylpiperazin-1-yl)methyl)phenyl)-4-oxo-1-(2-phenoxyphenyl)-4,5-dihydro-2H-pyrrolo[3,4-c]pyridine-6-carboxamide]	7.56	8.64	6.75
Cc1[nH]c(-c2ccccc2Oc2ccccc2)c2cc(C(=O)Nc3nccs3)[nH]c(=O)c12 [Example 26, 3-methyl-4-oxo-1-(2-phenoxyphenyl)-N-(thiazol-2-yl)-4,5-dihydro-2H-pyrrolo[3,4-c]pyridine-6-carboxamide]	7.25	6.93	6.35
CCOC(=O)c1cc2c(-c3ccccc3Oc3ccc(F)cc3F)[nH]c(C)c2c(=O)[nH]1 [Example 21, ethyl 1-[2-(2,4-difluorophenoxy)phenyl]-3-methyl-4-oxo-4,5-dihydro-2H-pyrrolo[3,4-c]pyridine-6-carboxylate]	7.61	6.55	6.98
Cc1[nH]c(-c2ccccc2Oc2ccc(F)cc2F)c2cc(C(N)=O)[nH]c(=O)c12 [Example 23, 1-[2-(2,4-difluorophenoxy)phenyl]-3-methyl-4-oxo-4,5-dihydro-2H-pyrrolo[3,4-c]pyridine-6-carboxamide]	8.20	7.35	7.22
CCOC(=O)c1cc2c(-c3cc(NS(=O)(=O)CC)ccc3Oc3ccc(F)cc3F)[nH]c(C)c2c(=O)[nH]1 [Example 10, ethyl 1-(2-(2,4-difluorophenoxy)-5-(ethylsulfonamido)phenyl)-3-methyl-4-oxo-4,5-dihydro-2H-pyrrolo[3,4-c]pyridine-6-carboxylate]	8.84	8.06	7.24
CNC(=O)c1cc2c(-c3ccccc3Oc3ccccc3)[nH]c(C)c2c(=O)[nH]1 [Example 13, N,3-dimethyl-4-oxo-1-(2-phenoxyphenyl)-4,5-dihydro-2H-pyrrolo[3,4-c]pyridine-6-carboxamide]	8.36	7.85	7.63
CCOC(=O)c1cc2c(-c3cc(NS(C)(=O)=O)ccc3Oc3ccc(F)cc3F)[nH]c(C)c2c(=O)[nH]1 [Example 9, ethyl 1-{2-(2,4-difluorophenoxy)-5-[(methylsulfonyl)amino]phenyl}-3-methyl-4-oxo-4,5-dihydro-2H-pyrrolo[3,4-c]pyridine-6-carboxylate]	8.47	7.53	7.15
